The target of data set [1] is human recombinant KDM1A enzyme (Homo sapiens (Human), UniProt O60341). The following applies: read-out: KDM1A IC50 (biochemical assay).
Procedure: The ability of the chemoprobes to inhibit KDM1A was tested in vitro using the assay described below.
KDM1A inhibition assay: a multistep enzymatic reaction in which the enzyme first produces H2O2 during the demethylation of lysine 4 in a 21 AA H3K4me2 N-terminal peptide. […] After 30 min of incubation at 37° C. Amplex Red reagent and the horseradish peroxidase (HRP) solution were added according to the recommendations of the supplier (Invitrogen) and left to incubate for 5 min at room temperature in the dark. Conversion of the Amplex Red reagent to resorufin, was monitored by fluorescence (λex=540 nm, λem=590 nm) using a microplate reader (Infinite F200 Tecan). Signals were corrected for background and the IC50 value was calculated with GraphPad Prism Software.
A further data set has as its target KDM1A in PBMCs (Homo sapiens (Human), UniProt O60341). Description: KDM1A target engagement in PBMCs of healthy volunteers (Phase I clinical study). The following applies: single oral dose of 1.5 mg, 12 and 72 h post-administration, 6 volunteers. Format: in vivo. The method, then:
A Phase I clinical study has been performed to characterize the safety, tolerability, pharmacokinetics and pharmacodynamics of Compound C in healthy volunteers. The first stage of this clinical study is a randomized, double-blind, dose escalation study, in which the KDM1A inhibitor was administered as a single oral dose in capsules. Up to five different dose levels were tested in cohorts of 8 volunteers, randomized to receive either Compound C (n=6) or placebo (n=2). As part of the pharmacodynamic evaluations in this clinical study, KDM1A target engagement (TE) was assessed at pre-treatment, and 12 and 72 h after drug administration. Briefly, blood samples (10 mL) were collected in EDTA-K2 tubes from all the treated volunteers (active drug and placebo, n=8 per dose level) and PBMCs pellets obtained by density gradient centrifugation in Leucosep™ tubes and stored at −90° C. until analysis. Only PBMC samples meeting pre-established sample quality control criteria are used for the TE analysis. In particular, samples with signs of hemolysis and/or with traces of red cells are discarded.
KDM1A TE values obtained for each volunteer in the cohort of volunteers corresponding to the single dose of 1.5 mg of Compound C are shown in FIG. 11.

A further data set relates to KDM1A in brain. Description: In vivo KDM1A target engagement, brain of SAMP8 mice. The protocol: (§1) 8.1. Samples preparation and obtention of protein extracts from cells was performed as described in example 5. Frozen tissues were homogenized with a mortar and pestle chilled on dry ice. Powdered samples were resuspended in lysis buffer and forced through a 18 gauge blunt syringe needle to lyse the cells, proteins were then extracted as described above for cell pellets (example 5.2). Isolation of PBMCs from peripheral blood was also as described in example 5.2.
(§2) 8.2. Assay Protocol and Calculation of TE: same as Described in Example 7.1 and 7.2.
The methods of the invention have also been used to determine KDM1A target engagement in SAMP8 mice (a non-transgenic model for neurodegeneration reminiscent of Alzheimer's disease) which have been treated with the KDM1A inhibitor designated as Compound C. Compound C is the compound with chemical name (−)5-((((trans)-2-(4-(benzyloxy)phenyl)cyclopropyl)amino)methyl)-1,3,4-oxadiazol-2-amine, which is described in WO2012/013728. […] Female SAMP8 mice were treated with Compound C starting at 5 months of age and during 2 months. Mice were randomly distributed in three groups, receiving vehicle or Compound C at 0.11 mg/kg/day or 0.32 mg/kg/day, respectively. […] The dose was calculated according to the animal water consumption average per cage and adjusted weekly. […]

A further data set addresses KDM1A in MV(4;11) cells (Homo sapiens (Human), UniProt O60341). The following applies: 24 h of treatment.
The target of data set [2] is T1, KDM1A in rat PBMCs (Rattus norvegicus (Rat), UniProt A0A8I6G2K8). The experiment in a line: In vivo KDM1A target engagement, ex vivo rat PBMCs. The following applies: pooled rat PBMC, oral gavage 4 consecutive days, 1, 3, 10 and 30 ug/kg/day, two hours after last administration. The method, then:
Peripheral blood mononuclear cells (PBMCs) from rat were isolated from peripheral fresh blood collected in anticoagulant tubes for blood (K2- or K3-EDTA as the preferred anticoagulant tubes) and diluted with an equal volume of PBS, using Ficoll-Paque PLUS reagent (GE Healthcare; #17-1440-02) or Leucosep Tubes (Greiner bio-one; #227288) according to manufacturer's instructions. Cells were stained with tryptan blue and cell number and viability were determined using a Neubauer Chamber in an optical microscope. Pellets of 1·10^6 PBMCs were preserved at −80° C. The same procedure can be used for isolation of PBMCs from other resources such as human or mouse blood. In the case of human samples, preferably Leucosep procedure is used, whereas for mouse PBMCs, Ficoll procedure is preferred.
8.1. Samples preparation and obtention of protein extracts from cells was performed as described in example 5. Frozen tissues were homogenized with a mortar and pestle chilled on dry ice. […]
(§3) Four different doses were used (1, 3, 10 and 30 ug/kg/day). The KDM1A target engagement was calculated as described previously (see example 7), where RX corresponds to each condition analyzed and RREF is the sample corresponding to vehicle (non treated) rat PBMCs.

The next data set concerns the target KDM1A from THP-1 cells (Homo sapiens (Human), UniProt O60341). The following applies: pretreatment with 25 nM; chemoprobe example 1.1.
Data set [3] deals with KDM1A from MV(4;11) cells (Homo sapiens (Human), UniProt O60341). The following applies: MV(4;11) cells pre-treated with 25 nM; chemoprobes Examples 1.4 and 1.5.
Procedure: (§6) Tubes were incubated for 5 min on ice and briefly sonicated to achieve lysis. The resulting extracts were centrifuged 10 min at 14.000×g at 4° C. Supernatants were collected and quantified by Bradford assay (BIO-RAD; #500-0006) following manufacturer's instructions.
(§7) 350 μg of protein extracts (containing the chemoprobe) was then added and incubated for 30 min at room temperature (RT) using gentle rotation. The chemoprobe-KDM1A complex bound to the streptavidin beads was separated using a magnet and washed 4 times in PBS. After the last wash, samples were resuspended in 25 μL of 3×SDS Sample Buffer and analyzed by western blot. Samples were separated on a 10% Bis-Tris NuPAGE® Novex® Precast gel (Invitrogen; #P0301BOX) following manufacturer's instructions. Gels were transferred onto nitrocellulose membrane (GE Healthcare; #RPN303D) for immunodetection by semi-dry transfer. N-specific binding sites were blocked by incubating membranes in blocking buffer (5% non-fat dry milk in PBS-Tween 0.1%) at RT for 1 h. […] Signal was detected by enhanced chemiluminescence (ECL, Amersham, GE Healthcare; #W9643350) using a GeneGnome HR System (Syngene).
For the next data set, the target named is KDM1A in rat lung (Rattus norvegicus (Rat), UniProt A0A8I6G2K8). The experiment in a line: In vivo KDM1A target engagement, ex vivo rat lung. The following applies: pooled rat lung, oral gavage 4 consecutive days, 1, 3, 10 and 30 ug/kg/day. The method, then: as §1, §2, §3
The target of a further data set is KDM1A in LNCap cells (Homo sapiens (Human), UniProt O60341). The experiment in a line: KDM1A target engagement in cells (chemoprobe luminescent ELISA), LNCap. Format: cell-based. The following applies: LNCap cells treated for 24 h at 0.1, 1 and 10 nM. The protocol: Coating was performed at 4° C.
Data set [4] has as its target T1, KDM1A in rat PBMCs. The experiment in a line: Dynamics of KDM1A target engagement in rat pooled PBMCs. The data set is classed as in vivo. The method, then:
Obtention of proteins extracts, assay protocol and calculation of TE as described in example 8.1, 7.1 and 7.2 respectively.
PBMCs were obtained pre-dose (before starting the drug administration) and 2, 6, 24 h after the single dose administration, or pre-dose (i.e. 0 h) and 2, 6, 24, 48 and 72 h after the last drug administration in the multiple dose administration. Total and free KDM1A protein levels in PBMCs were assessed using 0.5 ug of total protein extracts. […] The KDM1A target engagement was calculated as described previously (see section 7.2)), where RX corresponds to each time-point analyzed and RREF is the sample corresponding to the pre-dose of rat PBMC.

In another data set the target is KDM1A in THP-1 cells (Homo sapiens (Human), UniProt O60341). Description: KDM1A target engagement in cells (chemoprobe luminescent ELISA), THP-1. The following applies: THP-1 cells treated for 24 h, 0.25-25 nM.
The next data set deals with human rKDM1A (Homo sapiens (Human), UniProt O60341). Description: AlphaLISA detection of free KDM1A. The data set is classed as binding. The following applies: pretreatment of the enzyme at 5 uM; chemoprobe Example 1.6 100 nM. The method, then: The AlphaLISA assay detects the proximity of a first detection agent containing […] latex donor beads containing phthalocyanine that release singlet oxygen after irradiation at […] to a second detection agent containing similar sized acceptor beads containing Europium that emit a narrow peak of light at […] after absorption of singlet oxygen. The AlphaPlex assay allows detection of multiple analytes in the same assay volume and works similarly, but two acceptor beads are used (second and third detection agents) containing respectively Terbium or Samarium and emit light at 545 nM or 645 nM after absorption. Effective singlet oxygen transfer occurs when donor and acceptor beads are separated by a distance of less than 200 nm.
For example, anti-KDM1A antibody (mAb-844) was conjugated to AlphaLISA acceptor beads (Perkin Elmer #6772001) to generate a first detection agent, and anti-KDM1A antibody (mAb-825) was conjugated to AlphaLISA donor beads (Perkin Elmer #6762013) to generate a second detection agent that together form a detection system that can be used to determine total KDM1A levels. […]

For the next data set, the target named is hIL-4I1 (Homo sapiens (Human), UniProt Q96RQ9). Description: IL-4I1 inhibition (phenylalanine oxidation, HRP/Amplex red). The data set is classed as biochemical. The method, then:
(§4) The target selectivity of the chemoprobes for binding FAD in KDM1A relative to other FAD containing enzymes is evaluated by testing the chemoprobes in different biochemical assays to determine its MAO-A, MAO-B, IL4I1 and SMOX inhibitory activity in vitro. All IC50 values were calculated using Graph Prism Software.
Human recombinant IL-411 was purchased from RD Systems (#5684-A0-020). The biochemical activity was measured by its ability to oxidize phenylalanine and produce H2O2 in a horseradish-peroxidase coupled assay using Amplex red as substrate.

The target in the next data set is Human recombinant MAO-B (Homo sapiens (Human), UniProt P27338). The experiment in a line: MAO inhibition (kynuramine fluorescence assay), MAO-B. Format: biochemical. The following applies: kynuramine at KM, 1 h at 37° C. The protocol:
as §4
(§5) Human recombinant MAO-A and MAO-B were purchased from Sigma Aldrich (#M7316 and #M7441 respectively). Enzymatic activities and inhibition rate were analyzed in a fluorescence based assay using kynuramine (Sigma Aldrich #K3250) as a substrate. Clorgiline and Deprenyl (Sigma Aldrich #M3778 and #M003) were used as controls for specific inhibition of MAO-A and MAO-B respectively. Compounds were pre-incubated with protein for 15 min on ice in 100 mM Hepes pH 7.5. The enzymatic reaction was initiated by the addition of specific KM Kynuramine and incubated 1 h at 37° C. The reaction was stopped by adding NaOH 2N (v/v). The conversion of kynuramine to 4-hydroxyquinoline was monitored by fluorescence (λex=320 nm, λem=360 nm) using a microplate reader.

The target of a further data set is Human recombinant MAO-A (Homo sapiens (Human), UniProt P21397). The experiment in a line: MAO inhibition (kynuramine fluorescence assay), MAO-A. The following applies: kynuramine at KM, 1 h at 37° C. Format: biochemical. The protocol: as §4, §5
Chain of Human recombinant MAO-A (P21397 whole entry): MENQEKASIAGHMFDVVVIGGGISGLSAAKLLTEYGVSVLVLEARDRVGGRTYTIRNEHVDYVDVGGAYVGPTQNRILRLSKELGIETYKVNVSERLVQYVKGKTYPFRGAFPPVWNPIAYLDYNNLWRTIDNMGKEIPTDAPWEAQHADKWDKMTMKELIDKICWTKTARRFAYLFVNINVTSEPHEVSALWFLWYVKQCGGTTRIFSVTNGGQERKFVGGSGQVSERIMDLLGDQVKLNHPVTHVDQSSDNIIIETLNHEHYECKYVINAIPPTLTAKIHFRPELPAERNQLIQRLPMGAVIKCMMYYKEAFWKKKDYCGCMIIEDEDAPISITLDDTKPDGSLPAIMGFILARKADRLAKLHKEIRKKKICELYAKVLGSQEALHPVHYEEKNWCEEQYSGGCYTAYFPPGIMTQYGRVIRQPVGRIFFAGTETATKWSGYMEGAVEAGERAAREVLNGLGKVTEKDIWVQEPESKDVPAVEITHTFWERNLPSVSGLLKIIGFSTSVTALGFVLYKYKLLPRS
Data set [5] addresses Mouse recombinant SMOX enzyme (Mus musculus (Mouse), UniProt Q99K82). The experiment in a line: SMOX inhibition (spermine oxidation, HRP/Amplex red). Format: biochemical. The following applies: KM spermine, 10 minutes; read-out: mSMOX IC50. The method, then: as §4
Mouse recombinant SMOX enzyme was provided by Professor Paolo Mariottini (Rome University). The biochemical activity was measured by its ability to oxidize spermine in a horseradish peroxidase coupled assay using Amplex red as a substrate. The assay buffer for mSMOX reaction was 100 mM Sodium Phosphate pH 8.0. The inhibition by tested compounds was monitored during 10 minutes in the presence of KM spermine.

“Also recorded” adds a separate entry of the source. Where a name gives a salt, the structure may show the parent alone. Some results are limits rather than exact numbers.

Results on three molecules are retold here after patent publication US11034991B2, “Methods to determine KDM1A target engagement and chemoprobes useful therefor” (Oryzon Genomics S.A., priority 2016, dated 2021).

Chain of hIL-4I1 (Q96RQ9 22-567): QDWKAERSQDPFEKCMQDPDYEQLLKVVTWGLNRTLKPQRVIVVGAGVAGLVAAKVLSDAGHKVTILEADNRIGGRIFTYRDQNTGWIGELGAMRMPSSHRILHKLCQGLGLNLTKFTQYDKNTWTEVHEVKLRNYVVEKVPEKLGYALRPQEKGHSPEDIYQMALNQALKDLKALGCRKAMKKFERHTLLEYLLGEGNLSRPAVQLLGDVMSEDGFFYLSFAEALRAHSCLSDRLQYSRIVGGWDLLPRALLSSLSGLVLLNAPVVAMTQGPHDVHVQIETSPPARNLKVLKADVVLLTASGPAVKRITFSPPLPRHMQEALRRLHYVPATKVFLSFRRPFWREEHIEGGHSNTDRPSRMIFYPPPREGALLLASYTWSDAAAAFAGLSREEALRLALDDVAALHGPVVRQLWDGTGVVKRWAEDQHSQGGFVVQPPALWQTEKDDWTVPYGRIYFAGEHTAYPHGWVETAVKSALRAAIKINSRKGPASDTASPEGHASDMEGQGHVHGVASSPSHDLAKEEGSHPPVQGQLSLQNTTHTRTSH
Chain of Mouse recombinant SMOX enzyme (Q99K82 whole entry): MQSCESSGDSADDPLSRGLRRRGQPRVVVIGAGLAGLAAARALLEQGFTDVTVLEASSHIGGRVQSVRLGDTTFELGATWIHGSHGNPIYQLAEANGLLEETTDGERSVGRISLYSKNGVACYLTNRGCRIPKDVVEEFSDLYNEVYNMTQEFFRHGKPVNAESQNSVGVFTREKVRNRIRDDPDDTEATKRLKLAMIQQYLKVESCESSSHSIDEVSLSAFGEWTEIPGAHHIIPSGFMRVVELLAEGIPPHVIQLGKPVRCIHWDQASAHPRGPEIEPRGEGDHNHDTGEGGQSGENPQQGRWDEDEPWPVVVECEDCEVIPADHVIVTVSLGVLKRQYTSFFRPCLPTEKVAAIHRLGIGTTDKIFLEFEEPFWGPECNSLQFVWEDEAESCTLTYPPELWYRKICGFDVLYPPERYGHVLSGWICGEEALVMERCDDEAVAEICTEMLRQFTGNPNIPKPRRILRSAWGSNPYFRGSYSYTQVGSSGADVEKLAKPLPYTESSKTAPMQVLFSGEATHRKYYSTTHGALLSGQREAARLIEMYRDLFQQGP
Chain of Human recombinant MAO-B (P27338 whole entry): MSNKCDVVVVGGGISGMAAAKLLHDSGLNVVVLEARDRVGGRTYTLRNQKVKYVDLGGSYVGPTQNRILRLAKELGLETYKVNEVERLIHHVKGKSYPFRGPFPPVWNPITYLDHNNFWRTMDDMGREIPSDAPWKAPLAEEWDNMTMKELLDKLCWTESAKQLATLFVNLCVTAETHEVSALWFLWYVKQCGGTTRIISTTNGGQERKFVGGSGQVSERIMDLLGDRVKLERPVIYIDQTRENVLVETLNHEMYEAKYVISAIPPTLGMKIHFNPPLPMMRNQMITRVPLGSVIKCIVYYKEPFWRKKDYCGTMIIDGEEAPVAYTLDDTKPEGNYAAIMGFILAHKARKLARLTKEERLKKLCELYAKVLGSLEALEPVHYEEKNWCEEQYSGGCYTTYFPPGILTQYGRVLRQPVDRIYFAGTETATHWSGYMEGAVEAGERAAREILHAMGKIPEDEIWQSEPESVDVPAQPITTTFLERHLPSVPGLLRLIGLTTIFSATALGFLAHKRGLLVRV
Procedure for KDM1A from THP-1 cells: as §6, §7
Procedure for KDM1A in MV(4;11) cells: Total protein extracts were quantified and 1 ug of total protein was used to perform the target engagement analysis as described above, using the luminescent substrate.

Regarding `Nc1nnc(CN[C@@H]2C[C@H]2c2ccc(OCc3ccccc3)cc2)o1` [Compound C, (−)5-((((trans)-2-(4-(benzyloxy)phenyl)cyclopropyl)amino)methyl)-1,3,4-oxadiazol-2-amine], the IC50 in data set [1] was determined as 101 nM. The “KDM1A TE” value at KDM1A in PBMCs was “Clear KDM1A target engagement”. The “mean % KDM1A target engagement” value in the data set on KDM1A in brain (brain of female SAMP8 mice, 0.11 or 0.32 mg/kg/day in drinking water, 2 months) is “clear dose-response of KDM1A target engagement”. In addition, the brain penetration entry in the data set on KDM1A in brain (mouse, in vivo) is listed as “enters the brain; also recorded: cross the blood-brain barrier”.
For `N[C@H]1CC[C@H](N[C@@H]2C[C@H]2c2ccccc2)CC1` [ORY-1001, (trans)-N1-((1R,2S)-2-phenylcyclopropyl)cyclohexane-1,4-diamine], the “% of KDM1A target engagement” value at KDM1A in MV(4;11) cells is “dose-responsive cellular target engagement”. Also, the “KDM1A target engagement (in %)” value on KDM1A in rat PBMCs [2] and on KDM1A in rat lung was “clear dose-response of KDM1A target engagement” in each case. Besides, on KDM1A from THP-1 cells, the “effect of pretreatment on pull-down of KDM1A by chemoprobe” value was “completely prevented pull-down of KDM1A”. In addition, the “effect of pre-treatment on pull-down of KDM1A by chemoprobes” value in [3] is “completely prevented pull-down of KDM1A”. Besides, the KDM1A target engagement entry at KDM1A in LNCap cells is “clear KDM1A target engagement”. The “target engagement after multiple administrations versus single administration” value at KDM1A in rat PBMCs [4] (at the same dose level) was “higher than single administration”. Moreover, the “percentage of KDM1A target engagement over time” value on KDM1A in rat PBMCs [4] (pooled rat PBMCs, p.o. 2.5 and 15 ug/kg/day, single dose or 5 consecutive days) is “clear time- and dose-response in KDM1A target engagement”. Besides, on KDM1A in rat PBMCs [4] (up to 72 h after the last administration), the “percentage of KDM1A target engagement after the last dose in absence of further treatment” value is on record as “gradually decreases”. The “% of Target engagement” value on KDM1A in THP-1 cells is listed as “dose-responsive cellular target engagement”. Besides, the “free KDM1A signal (AlphaLISA)” value on human rKDM1A is on record as “blocked”.
As to `N[C@H]1CC[C@H](N[C@@H]2C[C@H]2c2ccc(-c3cccc(CCC(=O)NCCOCCOCCOCCOCCOCCOCCOCCOCCOCCOCCOCCNC(=O)CCCC[C@@H]4SC[C@@H]5NC(=O)N[C@@H]54)c3)cc2)CC1` [Example 1.6, N-(39-(4′-((1S,2R)-2-(((trans)-4-aminocyclohexyl)amino)cyclopropyl)-[1,1′-biphenyl]-3-yl)-37-oxo-3,6,9,12,15,18,21,24,27,30,33-undecaoxa-36-azanonatriacontyl)-5-((3aS,4S,6aR)-2-oxohexahydro-1H-thieno[3,4-d]imidazol-4-yl)pentanamide dihydrochloride], the IC50 against hIL-4I1 (KM phenylalanine, 30 minutes) is greater than 100 µM; at Human recombinant MAO-B, greater than 100 µM; on Human recombinant MAO-A, greater than 100 µM; in data set [5], 13 µM. At hIL-4I1 (at 100 uM), this molecule returned an inhibition at 100 µM of 31%.
